From US4897382A, “Organic amide compounds derived from nitrogenous lipids” (priority 1981, dated 1990)

What was measured:
[1] = test system: prolactin; test: Hypoprolactinemic effect in rats, serum prolactin by RIA, sulpiride-treated (hyperprolactinemic) animals; settings: for inhibition in vivo at 0.5 mg/kg / inhibition in vivo at 5 mg/kg: Rattus norvegicus; for inhibition in vivo at 0.5 mg/kg: read-out: Prolactin Inhibition %, sulpiride 10 γ/kg + 0.5 mg/kg test substance; for inhibition in vivo at 5 mg/kg: read-out: Prolactin Inhibition %, sulpiride 10 γ/kg + 5.0 mg/kg test substance
[2] = General pharmacological activity in vitro and in vivo; settings: tested in vitro and in vivo in laboratory animals
[3] = target: T1, dopamine receptors (Rattus norvegicus, UniProt P61169); test: Binding of (^3H)-spiroperidole to hypophysis membranes of rat; settings: for binding power / in vitro activity, in words: compared to the parent acid or lipid alone; for activity at 100 µM / activity at 10 µM / activity at 1 µM / activity at 0.1 µM: read-out: Product bound % ((^3H) spiroperidole binding to hypophysis membranes), (^3H) spiroperidole 2.10^-9 M (2 nM); for activity at 100 µM: test substance 10^-4 M; for activity at 10 µM: test substance 10^-5 M; for activity at 1 µM: test substance 10^-6 M; for activity at 0.1 µM: test substance 10^-7 M
T1 construct: on hypophysis sinaptosomal rat membranes; from tissue; host or cells: rat hypophysis (pituitary), synaptosomal membranes
Method: The in vitro biological activity was determined by comparative tests measuring the binding power of the labelled spiroperidole (^3 H)-spiroperidole on hypophysis sinaptosomal rat membranes according to the method described by Greese et al (GREESE I., SCHNEIDER R. and SNYDER S. H.; H-spiroperidole labels dopamine receptors in pituitary and brain; Europ. J. Pharmacol. 46, 377-381 (1977)).

[4] = test system: prolactin; test: Hypoprolactinemic effect in rats, serum prolactin by RIA, at the circadian peak at 4 p.m.; settings: for Prolactin / inhibition in vivo at 0.5 mg/kg / inhibition in vivo at 5 mg/kg: circadian peak at 4 p.m.; for inhibition in vivo at 0.5 mg/kg / inhibition in vivo at 5 mg/kg: Rattus norvegicus; for inhibition in vivo at 0.5 mg/kg: read-out: Prolactin Inhibition %, 0.5 mg/kg; for inhibition in vivo at 5 mg/kg: read-out: Prolactin Inhibition %, 5.0 mg/kg; for in vivo (hypoprolactinemic) activity, in words: rats, summary statement
[5] = test system: synaptic membranes of the rat cortex; test: Binding of ^3H-GABA on synaptic membranes of the rat cortex (method of Enna and Snyder); settings: for Product bound % (^3H-GABA binding on rat cortex membranes): ^3H-GABA 2.10^-8 M
Source text: Table I presents the results of these tests, expressed in percentage of the fixed active product, comparing the in vitro activity of Product 1 with the activities of the individual components which comprise Product 1.

[6] = GABA by itself; cited from earlier work
[7] = mice; cited from earlier work
[8] = background statement; cited from earlier work
[9] = Anticonvulsant effects in rat (isoniazide convulsions); assay type: in vivo
Method: The in vivo activity of Product 1 was measured by the method described by Costa et al (E. Costa, A. Guidotti and C. C. Mao; "Evidence for involvement of GABA in the Action of Benzodiazepines: Studies in Rat Cerebellum" in Mechanism of Action of Benzodiazepines; Ed. by E. Costa and P. Greengard, New York, Raven Press. pp. 113-130 (1975)) and by Loescher and Frey (Loesher, W. and Frey, H. H.; "Effect of convulsant and anticonvulsant agents on level and metabolism of gamma-aminobutyric acid in mouse brain"; Naunyn-Schmiedeberg's Arch. Pharmacol. 296, 263-269 (1977)). These tests are based on the known activity of isoniazide to cause convulsions and a lowering of the GABA cerebral levels and the glutamic-decarboxylase enzyme activity.

[10] = sulpiride 10 γ/kg + 0.5 mg/kg test substance
[11] = sulpiride 10 γ/kg + 5.0 mg/kg test substance
[12] = test substance 10^-8 M, 0.01 µM
[13] = isoniazide 160 mg/kg (s.c.) + GABA 8 mg/kg (i.p.)
[14] = isoniazide 160 mg/kg (s.c.) + Product 1 20 mg/kg (i.p.)

T1 sequence (P61169 whole entry): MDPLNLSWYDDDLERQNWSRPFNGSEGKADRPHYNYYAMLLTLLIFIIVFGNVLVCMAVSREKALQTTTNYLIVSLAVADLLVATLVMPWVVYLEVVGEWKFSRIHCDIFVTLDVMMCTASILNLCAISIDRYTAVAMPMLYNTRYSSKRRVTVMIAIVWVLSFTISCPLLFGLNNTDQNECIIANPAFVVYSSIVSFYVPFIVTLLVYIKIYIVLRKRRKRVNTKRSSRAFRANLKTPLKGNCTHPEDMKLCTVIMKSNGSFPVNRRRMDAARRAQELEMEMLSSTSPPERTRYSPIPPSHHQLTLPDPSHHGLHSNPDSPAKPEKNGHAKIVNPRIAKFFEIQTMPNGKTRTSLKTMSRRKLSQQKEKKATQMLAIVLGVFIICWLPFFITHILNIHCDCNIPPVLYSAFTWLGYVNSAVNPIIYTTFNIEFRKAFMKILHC

Structure (SMILES)	inhibition in vivo at 0.5 mg/kg [1] [%]	inhibition in vivo at 5 mg/kg [1] [%]	Prolactin [1, 10] [ng/mL]	Prolactin [1, 11] [ng/mL]	action in the central nervous system, in words [2]	binding power / in vitro activity, in words [3]	activity at 100 µM [3] [%]	activity at 10 µM [3] [%]	activity at 1 µM [3] [%]	activity at 0.1 µM [3] [%]	Prolactin ([4]; 0.5 mg/kg) [ng/mL]	Prolactin ([4]; 5.0 mg/kg) [ng/mL]	inhibition in vivo at 0.5 mg/kg [4] [%]	inhibition in vivo at 5 mg/kg [4] [%]	in vivo (hypoprolactinemic) activity, in words [4]	Product bound % (^3H-GABA binding on rat cortex membranes) ([5]; test substance 10^-4 M, 100 µM) [%]	Product bound % (^3H-GABA binding on rat cortex membranes) ([5]; test substance 10^-5 M, 10 µM) [%]	Product bound % (^3H-GABA binding on rat cortex membranes) ([5]; test substance 10^-6 M, 1 µM) [%]	Product bound % (^3H-GABA binding on rat cortex membranes) ([5]; test substance 10^-7 M, 0.1 µM) [%]	Product bound % (^3H-GABA binding on rat cortex membranes) [5, 12] [%]	other results
CCCCCCCCCCCCCCCC(O)C(CO)NC(=O)C1CC2c3cccc4[nH]cc(c34)CC2N(C)C1 (stereo not shown) [Product 15, Dihydrolysergyldihydrosphingosine amide]	44	55	48.0 ± 4.0	39.0 ± 6.0	capable of acting directly in the central nervous system	far superior to either dihydrolysergic acid or dihydrosphingosine alone	20	30	90	100	40.0 ± 5.6	31.0 ± 3.4	35	50	far superior to either dihydrolysergic acid or dihydrosphingosine alone	–	–	–	–	–	–
NCCCC(=O)O [GABA, Gamma-aminobutyric acid]	–	–	–	–	–	–	–	–	–	–	–	–	–	–	–	20	20	25	45	90	in vitro biological activity (GABA binding), in words ([5]; summary of Table I): activity comparable to that of Product 1; penetration of the encephalic barrier, in words [6]: incapable, by itself, of penetrating the encephalic barrier; effect when administered in vivo as measured by convulsion tests [7]: ineffective; in vitro / in vivo activity, in words [8]: active in vitro but relatively inactive in vivo; Latency of the convulsions measured [9, 13]: 3100 ± 156 s; Number of animals in convulsions [9, 13]: 24/30; Number of dead animals [9, 13]: 14
CCCCCCCCCCCCCC=CC(O)C(CO)NC(=O)CCCN (stereo not shown) [Product 1, Gamma-aminobutyrylsphingosine amide]	–	–	–	–	capable of acting directly in the central nervous system	–	–	–	–	–	–	–	–	–	–	20	25	40	60	95	in vivo (anticonvulsant) activity, in words ([9]; compared to GABA or sphingosine alone): far superior in vivo activity as compared to GABA or sphingosine alone; Latency of the convulsions measured [9, 14]: 4500 ± 330 s; Number of animals in convulsions [9, 14]: 9/30; Number of dead animals [9, 14]: 3
CCCCCCCCCCCCCC=CC(O)C(CO)NC(=O)C1CC2c3cccc4[nH]cc(c34)CC2N(C)C1 (stereo not shown) [Product 3, Dihydrolysergylsphingosine amide]	30	60	53.7 ± 8.5	31.2 ± 2.5	capable of acting directly in the central nervous system	significant and far superior, under the same experimental conditions, to that of dihydrolysergic acid or sphingosine alone	10	40	90	100	38.7 ± 4.7	32.2 ± 5.7	42	52	significant biological activity	–	–	–	–	–	–
